compound: CN(C)C(=N)NC(=N)N [Metformin] + Nc1nc2[nH]cc(CCc3ccc(C(=O)N[C@@H](CCC(=O)O)C(=O)O)cc3)c2c(=O)[nH]1 [Pemetrexed] (partner 0.2 µM); assay: relative viability (nuclei count vs DMSO), 5 days (fraction); higher = more cells survive; settings: first compound 10 µM
Method in brief: (§1)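 Values are medians from duplicate plates. Each reflects relative viability, defined as the nuclei count of treated wells over that of vehicle wells. Lung cancer cell lines in 1536-well plates were pin-tool dosed one day after seeding with one drug alone or with a fixed anchor-drug dose plus five library-drug doses (not always all listed) in √10 steps, then fixed, stained and imaged at 4× after 5 days.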

Cell Line	relative viability
NCI-H2009	0.874
NCI-H2023	0.185
NCI-H2085	0.917
NCI-H2087	0.622
NCI-H2126	0.648
NCI-H2228	0.313
NCI-H2347	0.406
NCI-H3122	0.178
PC-3 [JPC-3]	1.12
PC-14	0.167
RERF-LC-KJ	0.491
SK-LU-1	0.853
SW 1573	0.728
UMC-11	0.907

same assay, conditions: first compound 31.62 µM

Cell Line	relative viability
NCI-H2009	0.943
NCI-H2023	0.219
NCI-H2085	0.815
NCI-H2087	0.702
NCI-H2126	0.658
NCI-H2228	0.199
NCI-H2347	0.482
NCI-H2405	1.16
NCI-H3122	0.171
PC-3 [JPC-3]	1.08
PC-14	0.154
RERF-LC-KJ	0.447
SK-LU-1	0.956
SW 1573	0.817
UMC-11	0.697

same assay, conditions: first compound 100 µM

Cell Line	relative viability
NCI-H2009	0.891
NCI-H2023	0.226
NCI-H2085	0.904
NCI-H2087	0.615
NCI-H2126	0.672
NCI-H2228	0.381
NCI-H2347	0.408
NCI-H2405	1.04
NCI-H3122	0.197
PC-14	0.164
RERF-LC-KJ	0.504
SK-LU-1	0.97
SW 1573	0.668
UMC-11	0.81

same assay, conditions: first compound 316.23 µM

Cell Line	relative viability
NCI-H2009	0.814
NCI-H2023	0.187
NCI-H2085	0.881
NCI-H2087	0.536
NCI-H2126	0.579
NCI-H2228	0.28
NCI-H2347	0.465
NCI-H2405	0.619
NCI-H3122	0.184
PC-3 [JPC-3]	0.897
PC-14	0.14
RERF-LC-KJ	0.426
SK-LU-1	0.892
SW 1573	0.725
UMC-11	0.791

same assay, conditions: first compound 1000 µM

Cell Line	relative viability
NCI-H2009	0.891
NCI-H2023	0.205
NCI-H2085	0.955
NCI-H2087	0.614
NCI-H2126	0.71
NCI-H2228	0.337
NCI-H2347	0.399
NCI-H2405	0.679
NCI-H3122	0.222
PC-3 [JPC-3]	0.705
PC-14	0.157
RERF-LC-KJ	0.455
SK-LU-1	0.905
SW 1573	0.743
UMC-11	0.855

compound: N#CC1(c2ccc(NC(=O)c3cccnc3NCc3ccncc3)cc2)CCCC1 [Apatinib] + CC(C)C[C@H](NC(=O)[C@H](Cc1ccccc1)NC(=O)c1cnccn1)B(O)O [Bortezomib] (partner 0.002 µM); assay: as above; settings: first compound 0.08 µM
Method in brief: as §1

Cell Line	relative viability
NCI-H2009	1.09
NCI-H2023	1.02
NCI-H2085	1.1
NCI-H2087	0.866
NCI-H2126	1.11
NCI-H2228	1.27
NCI-H2347	0.847
NCI-H2405	0.891
NCI-H3122	1.04
PC-3 [JPC-3]	0.832
PC-14	0.984
RERF-LC-KJ	1.03
SK-LU-1	0.932
SW 1573	1.15
UMC-11	1.01

same assay, conditions: first compound 0.253 µM

Cell Line	relative viability
NCI-H2009	0.955
NCI-H2023	1.09
NCI-H2085	0.831
NCI-H2087	0.82
NCI-H2126	1.01
NCI-H2228	1.17
NCI-H2347	1.06
NCI-H2405	0.99
NCI-H3122	1.05
PC-3 [JPC-3]	0.773
PC-14	1.01
RERF-LC-KJ	0.99
SK-LU-1	1.26
SW 1573	1.04
UMC-11	0.728

same assay, conditions: first compound 0.8 µM

Cell Line	relative viability
NCI-H2009	0.954
NCI-H2023	1.02
NCI-H2085	1.06
NCI-H2087	0.779
NCI-H2126	1.08
NCI-H2228	1.17
NCI-H2347	1.13
NCI-H2405	0.961
NCI-H3122	1.05
PC-3 [JPC-3]	0.713
PC-14	0.79
RERF-LC-KJ	1.04
SK-LU-1	0.968
SW 1573	0.982
UMC-11	0.722

same assay, conditions: first compound 2.53 µM

Cell Line	relative viability
NCI-H2009	0.714
NCI-H2023	0.858
NCI-H2085	1.13
NCI-H2087	0.737
NCI-H2126	1.06
NCI-H2228	1.02
NCI-H2405	0.954
NCI-H3122	1.04
PC-3 [JPC-3]	0.716
PC-14	0.776
RERF-LC-KJ	1.05
SK-LU-1	1.12
SW 1573	1.05
UMC-11	0.623

same assay, conditions: first compound 8 µM

Cell Line	relative viability
NCI-H2009	0.574
NCI-H2023	0.856
NCI-H2085	1.04
NCI-H2087	0.671
NCI-H2126	1.06
NCI-H2228	0.93
NCI-H2347	0.891
NCI-H2405	0.961
NCI-H3122	0.958
PC-3 [JPC-3]	0.813
PC-14	0.834
RERF-LC-KJ	1.05
SK-LU-1	1
SW 1573	0.944
UMC-11	0.67

compound: N#CC1(c2ccc(NC(=O)c3cccnc3NCc3ccncc3)cc2)CCCC1 [Apatinib] + Cc1nc(Nc2ncc(C(=O)Nc3c(C)cccc3Cl)s2)cc(N2CCN(CCO)CC2)n1 [Dasatinib] (partner 0.075 µM); assay: as above; settings: first compound 0.08 µM
Method in brief: as §1

Cell Line	relative viability
NCI-H2009	0.374
NCI-H2023	0.566
NCI-H2085	0.229
NCI-H2087	0.929
NCI-H2126	0.584
NCI-H2228	0.538
NCI-H2347	0.343
NCI-H2405	0.215
NCI-H3122	0.858
PC-3 [JPC-3]	0.988
PC-14	0.284
RERF-LC-KJ	0.859
SK-LU-1	0.182
SW 1573	0.454
UMC-11	0.518

same assay, conditions: first compound 0.253 µM

Cell Line	relative viability
NCI-H2009	0.326
NCI-H2023	0.639
NCI-H2085	0.229
NCI-H2087	0.747
NCI-H2126	0.514
NCI-H2228	0.533
NCI-H2347	0.26
NCI-H2405	0.207
NCI-H3122	0.666
PC-3 [JPC-3]	0.943
PC-14	0.238
RERF-LC-KJ	0.897
SK-LU-1	0.207
SW 1573	0.624
UMC-11	0.515

same assay, conditions: first compound 0.8 µM

Cell Line	relative viability
NCI-H2009	0.31
NCI-H2023	0.536
NCI-H2085	0.231
NCI-H2087	0.763
NCI-H2126	0.52
NCI-H2228	0.518
NCI-H2347	0.371
NCI-H2405	0.202
NCI-H3122	0.836
PC-3 [JPC-3]	0.88
PC-14	0.203
RERF-LC-KJ	0.754
SK-LU-1	0.184
SW 1573	0.393
UMC-11	0.42

same assay, conditions: first compound 2.53 µM

Cell Line	relative viability
NCI-H2009	0.195
NCI-H2023	0.392
NCI-H2085	0.243
NCI-H2087	0.685
NCI-H2126	0.488
NCI-H2228	0.387
NCI-H2347	0.276
NCI-H2405	0.159
NCI-H3122	0.845
PC-3 [JPC-3]	0.83
PC-14	0.208
RERF-LC-KJ	0.615
SK-LU-1	0.167
SW 1573	0.351
UMC-11	0.442

same assay, conditions: first compound 8 µM

Cell Line	relative viability
NCI-H2009	0.179
NCI-H2023	0.358
NCI-H2085	0.215
NCI-H2087	0.524
NCI-H2126	0.446
NCI-H2228	0.295
NCI-H2347	0.352
NCI-H2405	0.192
NCI-H3122	0.538
PC-3 [JPC-3]	0.879
PC-14	0.178
RERF-LC-KJ	0.52
SK-LU-1	0.175
SW 1573	0.458
UMC-11	0.394

compound: N#CC1(c2ccc(NC(=O)c3cccnc3NCc3ccncc3)cc2)CCCC1 [Apatinib] + O=C(CCCCCCC(=O)Nc1ccccc1)NO [Vorinostat] (partner 1 µM); assay: as above; settings: first compound 0.08 µM
Method in brief: as §1

Cell Line	relative viability
NCI-H2009	0.701
NCI-H2023	0.774
NCI-H2085	0.77
NCI-H2087	0.768
NCI-H2126	0.86
NCI-H2228	0.535
NCI-H2347	0.655
NCI-H2405	1.21
NCI-H3122	0.995
PC-14	0.821
RERF-LC-KJ	0.625
SK-LU-1	0.905
SW 1573	0.993
UMC-11	0.403

same assay, conditions: first compound 0.253 µM

Cell Line	relative viability
NCI-H2009	0.776
NCI-H2023	0.673
NCI-H2085	0.777
NCI-H2087	0.591
NCI-H2126	0.717
NCI-H2228	0.703
NCI-H2347	0.569
NCI-H2405	1.15
NCI-H3122	0.968
PC-3 [JPC-3]	0.756
PC-14	0.755
RERF-LC-KJ	0.72
SK-LU-1	0.778
SW 1573	1.07
UMC-11	0.397

same assay, conditions: first compound 0.8 µM

Cell Line	relative viability
NCI-H2009	0.669
NCI-H2023	0.811
NCI-H2085	0.711
NCI-H2087	0.747
NCI-H2126	0.671
NCI-H2228	0.538
NCI-H2347	0.619
NCI-H2405	1.06
NCI-H3122	1.07
PC-3 [JPC-3]	0.733
PC-14	0.639
RERF-LC-KJ	0.63
SK-LU-1	0.776
SW 1573	0.702
UMC-11	0.366

same assay, conditions: first compound 2.53 µM

Cell Line	relative viability
NCI-H2009	0.627
NCI-H2023	0.58
NCI-H2085	0.73
NCI-H2087	0.579
NCI-H2126	0.768
NCI-H2228	0.55
NCI-H2347	0.542
NCI-H2405	0.951
NCI-H3122	0.734
PC-3 [JPC-3]	0.533
PC-14	0.606
RERF-LC-KJ	0.695
SK-LU-1	0.722
SW 1573	0.47
UMC-11	0.349

same assay, conditions: first compound 8 µM

Cell Line	relative viability
NCI-H2009	0.48
NCI-H2023	0.483
NCI-H2085	0.742
NCI-H2087	0.688
NCI-H2126	0.755
NCI-H2228	0.639
NCI-H2347	0.557
NCI-H2405	1.03
NCI-H3122	0.895
PC-3 [JPC-3]	0.799
PC-14	0.547
RERF-LC-KJ	0.577
SK-LU-1	0.554
SW 1573	0.446
UMC-11	0.341

Reference: the supplement of paper PMC10307832
